Source: patent publication US20230011869A1 (Hoffmann-La Roche Inc., priority 2018, published 2023)
Where a name gives a salt, the structure may show the parent alone. Read-outs that look alike come from different tables or passages of the source.

System: Acinetobacter baumannii ATCC17978
Assay: Antimicrobial susceptibility testing: 90% growth inhibitory concentration (IC90) determination, Iso-Sensitest broth
Format: cell-based
Method in brief: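 A. baumannii ATCC17978 grown in Iso-Sensitest broth across 10 compound concentrations at 35±2 °C.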

[1] = Acinetobacter baumannii, ATCC17978, 16 h, read-out: ATCC17978 IC90, 90% growth inhibitory concentration, Acinetobacter baumannii ATCC17978, Iso-Sensitest broth, OD 600 nm over 16 h
[2] = 90% growth inhibitory concentration, Acinetobacter baumannii ATCC17978, Iso-Sensitest broth, OD 600 nm over 16 h, read-out: ATCC17978 IC90

Row | IC90 [2] [µM] | SMILES | IC90 [1] [µM]
1 |  | Cc1cc(Nc2nccn3c(-c4ccc(OC(F)F)cc4)cnc23)ccc1C(=O)N1CCC(C(=O)N2C[C@H](O)[C@@H](O)[C@H](O)[C@H]2CO)CC1 [Example 349, [4-[[3-[4-(difluoromethoxy)phenyl]imi-dazo[1,2-a]pyrazin-8-yl]amino]-2-methylphenyl]-[4-[(2R,3R,4R,5S)-3,4,5-trihydroxy-2-(hydroxymethyl)piperidine-1-carbonyl]piperidin-1-yl]methanone] | 0.66
2 |  | Cc1cc(Nc2nccn3c(-c4ccc(OC(F)F)cc4)cnc23)ccc1C(=O)N1CCC(C(=O)N[C@@H]2[C@@H](O)[C@H](O)[C@@H](CO)O[C@@H]2O)CC1 [Example 350, 1-[4-[[3-[4-(difluoromethoxy)phenyl]imi-dazo[1,2-a]pyrazin-8-yl]amino]-2-methylbenzoyl]-N-[(2S,3R,4R,5S,6R)-2,4,5-trihydroxy-6-(hydroxymethyl)oxan-3-yl]piperidine-4-carboxamide] | 0.71
3 |  | CCNC(=O)CN1CCN(C(=O)c2ccc(Nc3nccn4c(-c5ccc(OC(F)F)cc5)cnc34)cc2C)CC1 [Example 352, 2-[4-[4-[[3-[4-(difluoromethoxy)phenyl]imi-dazo[1,2-a]pyrazin-8-yl]amino]-2-methylbenzoyl]piperazin-1-yl]-N-ethylacetamide] | 0.22
4 |  | Cc1cc(Nc2nccn3c(-c4ccc(OC(F)F)cc4)cnc23)ccc1C(=O)N1CCC(Cn2ccnc2)CC1 [Example 353, [4-[[3-[4-(difluoromethoxy)phenyl]imi-dazo[1,2-a]pyrazin-8-yl]amino]-2-methylphenyl]-[4-(imidazol-1-ylmethyl)piperidin-1-yl]methanone] | 0.24
5 |  | Cc1cc(Nc2nccn3c(-c4ccc(OC(F)F)cc4)cnc23)ccc1C(=O)N1CCC(Cn2cnnc2)CC1 [Example 354, [4-[[3-[4-(difluoromethoxy)phenyl]imi-dazo[1,2-a]pyrazin-8-yl]amino]-2-methylphenyl]-[4-(1,2,4-triazol-4-ylmethyl)piperidin-1-yl]methanone] | 0.24
6 |  | Cc1cc(Nc2nccn3c(-c4ccc(OC(F)F)cc4)cnc23)ccc1C(=O)N1CCN(CCN2CCCCC2)CC1 [Example 355, [4-[[3-[4-(difluoromethoxy)phenyl]imi-dazo[1,2-a]pyrazin-8-yl]amino]-2-methylphenyl]-[4-(2-piperidin-1-ylethyl)piperazin-1-yl]methanone] | 0.26
7 |  | Cc1cc(Nc2nccn3c(-c4ccc(OC(F)F)cc4)cnc23)ccc1C(=O)N1CCC(c2nccn2C)CC1 [Example 356, [4-[[3-[4-(difluoromethoxy)phenyl]imi-dazo[1,2-a]pyrazin-8-yl]amino]-2-methylphenyl]-[4-(1-methylimidazol-2-yl)piperidin-1-yl]methanone] | 0.3
8 | 0.33 | COc1ccc(-c2cnc3c(Nc4ccc(C(=O)N5CCC(c6nncn6C)CC5)c(C)c4)nccn23)cc1F [Example 357, [4-[[3-(3-fluoro-4-methoxyphenyl)imidazo[1,2-a]pyrazin-8-yl]amino]-2-methylphenyl]-[4-(4-methyl-1,2,4-triazol-3-yl)piperidin-1-yl]methanone] | 
9 |  | CNCCNC(=O)C1CCN(C(=O)c2ccc(Nc3nccn4c(-c5ccc(OC(F)F)cc5)cnc34)cc2C)CC1 [Example 358, 1-[4-[[3-[4-(difluoromethoxy)phenyl]imi-dazo[1,2-a]pyrazin-8-yl]amino]-2-methylbenzoyl]-N-[2-(methylamino)ethyl]piperidine-4-carboxamide; hydrochloride] | 0.34
10 |  | Cc1cc(Nc2nccn3c(-c4ccc(OC(F)F)cc4)cnc23)ccc1C(=O)N1CCC2(CCNCC2)CC1 [Example 359, 3,9-diazaspiro[5.5]undecan-3-yl-[4-[[3-[4-(difluoromethoxy)phenyl]imi-dazo[1,2-a]pyrazin-8-yl]amino]-2-methylphenyl]methanone; hy-drochloride] | 0.41
11 |  | Cc1cc(Nc2nccn3c(-c4ccc(OC(F)F)cc4)cnc23)ccc1C(=O)N1CCC2(CC1)CNC2 [Example 360, 2,7-diazaspiro[3.5]nonan-7-yl-[4-[[3-[4-(difluoromethoxy)phenyl]imi-dazo[1,2-a]pyrazin-8-yl]amino]-2-methylphenyl]methanone; hy-drochloride] | 0.42
12 |  | Cc1cc(Nc2nccn3c(-c4ccc(OC(F)F)cc4)cnc23)ccc1C(=O)N1CCC(N)CC1 [Example 361, (4-aminopiperidin-1-yl)-[4-[[3-[4-(difluoromethoxy)phenyl]imi-dazo[1,2-a]pyrazin-8-yl]amino]-2-methylphenyl]methanone; hy-drochloride] | 0.45
13 | 0.49 | Cc1cc(Nc2nccn3c(-c4ccc(OC(F)F)c(F)c4)cnc23)ccc1C(=O)N1CCC(N)CC1 [Example 362, (4-aminopiperidin-1-yl)-[4-[[3-[4-(difluoromethoxy)-3-fluorophenyl]imidazo[1,2-a]pyrazin-8-yl]amino]-2-methylphenyl]methanone; hy-drochloride] | 
14 |  | CCc1cc(Nc2nccn3c(-c4ccc(OC(F)F)cc4)cnc23)ccc1C(=O)N1CCC(CN)CC1 [Example 363, [4-(aminomethyl)piperidin-1-yl]-[4-[[3-[4-(difluoromethoxy)phenyl]imi-dazo[1,2-a]pyrazin-8-yl]amino]-2-ethylphenyl]methanone; hydro-chloride] | 0.52
15 |  | Cc1cc(Nc2nccn3c(-c4ccc(OC(F)F)cc4)cnc23)ccc1C(=O)N1CCOC(CN)C1 (centres unmarked) [Example 364, [2-(aminomethyl)morpholin-4-yl]-[4-[[3-[4-(difluoromethoxy)phenyl]imi-dazo[1,2-a]pyrazin-8-yl]amino]-2-methylphenyl]methanone; hy-drochloride] | 0.53
16 |  | Cc1cc(Nc2nccn3c(-c4ccc(OC(F)F)cc4)cnc23)ccc1C(=O)N1CCC2(COC2)C1 [Example 365, [4-[[3-[4-(difluoromethoxy)phenyl]imi-dazo[1,2-a]pyrazin-8-yl]amino]-2-methylphenyl]-(2-oxa-7-azaspiro[3.4]octan-7-yl)methanone] | 0.55
17 |  | Cc1cc(Nc2nccn3c(-c4ccc(OC(F)F)cc4)cnc23)ccc1C(=O)N1CCC(N2CCOCC2)CC1 [Example 366, [4-[[3-[4-(difluoromethxoy)phenyl]imi-dazo[1,2-a]pyrazin-8-yl]amino]-2-methylphenyl]-(4-morpholin-4-ylpiperidin-1-yl)methanone] | 0.64
18 |  | CCN1CCN(C2CCN(C(=O)c3ccc(Nc4nccn5c(-c6ccc(OC(F)F)cc6)cnc45)cc3C)CC2)CC1 [Example 367, [4-[[3-[4-(difluoromethoxy)phenyl]imi-dazo[1,2-a]pyrazin-8-yl]amino]-2-methylphenyl]-[4-(4-ethylpiperazin-1-yl)piperidin-1-yl]methanone] | 0.69
19 |  | Cc1cc(Nc2nccn3c(-c4ccc(OC(F)F)cc4)cnc23)ccc1C(=O)N1CCCC(N)C1 (centres unmarked) [Example 368, (3-aminopiperidin-1-yl)-[4-[[3-[4-(difluoromethoxy)phenyl]imi-dazo[1,2-a]pyrazin-8-yl]amino]-2-methylphenyl]methanone; hy-drochloride] | 0.81
20 |  | CCN(CC)C(=O)N1CCN(C(=O)c2ccc(Nc3nccn4c(-c5ccc(OC(F)F)cc5)cnc34)cc2C)CC1 [Example 369, 4-[4-[[3-[4-(difluoromethoxy)phenyl]imi-dazo[1,2-a]pyrazin-8-yl]amino]-2-methylbenzoyl]-N,N-diethylpiperazine-1-carboxamide] | 0.89
